Reference: article PMC8989868, “Structural mechanism of TRPM7 channel regulation by intracellular magnesium” (Cellular and Molecular Life Sciences: CMLS, 2022)

Target: T1, mouse TRPM7 (Mus musculus, UniProt Q923J1)
T1 construct: full-length channel-kinase, untagged, in bicistronic pIRES2-EGFP, transiently expressed in HEK293T cells; homotetramer
Assay: whole-cell patch clamp, current at +[…] mV
Assay type: cell-based
Settings: external NS8593, inhibitor; Mg2+-free intracellular solution; pH 7.2

T1 sequence (Q923J1 whole entry): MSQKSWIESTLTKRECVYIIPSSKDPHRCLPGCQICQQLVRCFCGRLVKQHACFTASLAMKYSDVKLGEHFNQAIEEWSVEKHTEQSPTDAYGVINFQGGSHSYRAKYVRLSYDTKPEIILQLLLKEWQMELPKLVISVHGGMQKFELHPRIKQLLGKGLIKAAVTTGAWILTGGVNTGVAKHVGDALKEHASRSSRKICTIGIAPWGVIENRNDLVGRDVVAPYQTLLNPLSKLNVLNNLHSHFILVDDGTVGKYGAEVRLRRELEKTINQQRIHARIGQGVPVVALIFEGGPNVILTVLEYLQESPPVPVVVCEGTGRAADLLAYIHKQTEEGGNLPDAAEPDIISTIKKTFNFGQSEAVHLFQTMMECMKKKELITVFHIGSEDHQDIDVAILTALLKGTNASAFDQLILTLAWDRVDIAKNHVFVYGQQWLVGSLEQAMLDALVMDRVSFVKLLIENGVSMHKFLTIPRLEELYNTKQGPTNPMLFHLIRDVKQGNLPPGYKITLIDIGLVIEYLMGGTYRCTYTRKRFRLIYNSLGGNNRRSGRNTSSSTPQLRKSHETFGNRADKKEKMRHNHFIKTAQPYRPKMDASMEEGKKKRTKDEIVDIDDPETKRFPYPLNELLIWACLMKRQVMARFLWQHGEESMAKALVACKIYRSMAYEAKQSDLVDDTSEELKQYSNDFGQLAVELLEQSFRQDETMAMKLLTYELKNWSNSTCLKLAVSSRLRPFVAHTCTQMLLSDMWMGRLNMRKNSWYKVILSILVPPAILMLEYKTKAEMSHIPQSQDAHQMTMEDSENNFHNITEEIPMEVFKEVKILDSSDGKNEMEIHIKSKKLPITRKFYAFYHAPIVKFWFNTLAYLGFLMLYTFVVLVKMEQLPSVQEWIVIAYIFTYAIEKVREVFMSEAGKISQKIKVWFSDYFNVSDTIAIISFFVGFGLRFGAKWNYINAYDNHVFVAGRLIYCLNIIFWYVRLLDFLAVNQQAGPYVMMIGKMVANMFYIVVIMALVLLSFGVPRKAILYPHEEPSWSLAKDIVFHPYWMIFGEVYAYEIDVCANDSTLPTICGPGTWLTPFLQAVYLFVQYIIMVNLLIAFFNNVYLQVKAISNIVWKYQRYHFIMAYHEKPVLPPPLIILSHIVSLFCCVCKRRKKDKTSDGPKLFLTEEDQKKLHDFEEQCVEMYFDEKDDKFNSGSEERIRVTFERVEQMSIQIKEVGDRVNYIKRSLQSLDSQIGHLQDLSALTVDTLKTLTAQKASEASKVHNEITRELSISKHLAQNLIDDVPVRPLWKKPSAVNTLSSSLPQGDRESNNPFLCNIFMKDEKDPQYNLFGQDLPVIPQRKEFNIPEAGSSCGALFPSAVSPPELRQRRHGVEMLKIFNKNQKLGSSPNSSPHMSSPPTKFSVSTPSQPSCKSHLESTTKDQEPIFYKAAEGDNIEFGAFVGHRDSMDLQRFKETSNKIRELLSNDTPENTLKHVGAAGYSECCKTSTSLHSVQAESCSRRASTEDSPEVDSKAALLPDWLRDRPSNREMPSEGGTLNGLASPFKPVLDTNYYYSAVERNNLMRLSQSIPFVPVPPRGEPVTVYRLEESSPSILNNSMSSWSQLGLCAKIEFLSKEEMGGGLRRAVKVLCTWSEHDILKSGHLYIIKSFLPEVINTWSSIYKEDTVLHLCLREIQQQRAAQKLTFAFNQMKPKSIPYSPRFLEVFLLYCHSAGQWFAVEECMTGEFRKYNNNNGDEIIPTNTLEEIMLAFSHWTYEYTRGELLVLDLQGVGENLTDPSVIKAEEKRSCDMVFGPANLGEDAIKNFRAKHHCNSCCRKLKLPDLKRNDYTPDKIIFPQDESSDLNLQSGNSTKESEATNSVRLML

Compound: c1ccc2c(c1)CCC[C@H]2Nc1nc2ccccc2[nH]1 [NS8593]
- current inhibition at 10 μM: NS8593 caused a rapid inhibition of WT and N1097Q currents
